This note sets out measurements from ChEMBL document CHEMBL1124699, “3-Hydroxy-3-methylglutaryl-coenzyme A reductase inhibitors. 6. Trans-6-[2-(substituted-1-naphthyl)ethyl(or ethenyl)]-3,4,5,6-tetrahydro-4-hydroxy-2H-pyran-2-ones” (J Med Chem, 1990).

Assay [1] has as its target T1, 3-hydroxy-3-methylglutaryl-coenzyme A reductase (Rattus norvegicus) (UniProt P51639).
T1 sequence (whole entry): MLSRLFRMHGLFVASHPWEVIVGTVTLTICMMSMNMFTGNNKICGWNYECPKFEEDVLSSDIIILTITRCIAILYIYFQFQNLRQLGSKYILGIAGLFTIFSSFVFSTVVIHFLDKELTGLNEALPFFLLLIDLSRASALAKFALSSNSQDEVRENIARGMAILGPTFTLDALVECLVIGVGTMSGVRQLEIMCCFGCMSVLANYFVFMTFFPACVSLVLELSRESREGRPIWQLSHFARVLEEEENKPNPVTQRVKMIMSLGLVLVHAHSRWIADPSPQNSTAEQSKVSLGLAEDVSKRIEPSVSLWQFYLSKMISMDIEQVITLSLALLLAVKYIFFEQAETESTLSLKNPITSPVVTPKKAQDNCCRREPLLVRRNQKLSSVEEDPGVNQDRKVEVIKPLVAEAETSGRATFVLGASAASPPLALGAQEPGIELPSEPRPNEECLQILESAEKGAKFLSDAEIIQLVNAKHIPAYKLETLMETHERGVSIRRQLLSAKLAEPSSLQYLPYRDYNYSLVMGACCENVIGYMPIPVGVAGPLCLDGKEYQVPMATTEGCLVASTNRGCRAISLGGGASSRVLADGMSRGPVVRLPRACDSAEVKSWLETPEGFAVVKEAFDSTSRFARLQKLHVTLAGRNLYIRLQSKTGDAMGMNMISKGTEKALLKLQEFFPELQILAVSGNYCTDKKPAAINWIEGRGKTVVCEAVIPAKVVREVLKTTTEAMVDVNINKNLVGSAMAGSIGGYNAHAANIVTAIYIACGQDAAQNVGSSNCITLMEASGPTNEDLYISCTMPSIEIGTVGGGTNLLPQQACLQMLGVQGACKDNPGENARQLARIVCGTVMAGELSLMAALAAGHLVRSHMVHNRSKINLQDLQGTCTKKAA
As to the kind of experiment: Potency against HMG-CoA reductase relative to Compactin.

In assay [2] the target is T2, 3-hydroxy-3-methylglutaryl-coenzyme A reductase (Rattus norvegicus, UniProt P51639).
T2 sequence (P51639 whole entry): T1 sequence (whole entry)
As to the kind of experiment: Inhibitory activity against HMG-CoA reductase.

Molecule `O=C1C[C@H](O)C[C@@H](/C=C/c2cccc3cccc(Br)c23)O1` had a Relative potency in assay [1] of 0.72. This molecule also registered an IC50 in assay [2] of 4.12 µM.

Regarding `O=C1C[C@H](O)C[C@@H](/C=C/c2c(Cl)ccc3ccccc23)O1`, in assay [1], the Relative potency stood at 2.3. In assay [2], this molecule gave an IC50 of 1.51 µM.

`O=C1C[C@H](O)CC(CCc2c(Cl)cc(Cl)c3cc(Cl)ccc23)O1` (some centres undefined): the Relative potency in assay [1] is 46. The molecule further returned an IC50 in assay [2] of 0.033 µM.

`Cc1ccc2c(C)cc(C)c(CCC3C[C@@H](O)CC(=O)O3)c2c1` (some centres undefined) showed a Relative potency in assay [1] of 5. Also, it took 0.36 µM to reach half-maximal inhibition in assay [2] (IC50).

In assay [1], `O=C1C[C@H](O)C[C@@H](/C=C/c2ccc(Br)c3ccccc23)O1` registered a Relative potency of 0.96. This molecule also returned an IC50 in assay [2] of 4 µM.

In turn, `O=C1C[C@H](O)CC(CCc2c(Cl)cc(Cl)c3ccc(Cl)cc23)O1` (some centres undefined) returned a Relative potency in assay [1] of 47. The molecule further returned an IC50 in assay [2] of 0.032 µM.

In the case of `O=C1C[C@H](O)CC(CCc2cccc3ccccc23)O1` (some centres undefined), in assay [1], the Relative potency was 0.043. The IC50 in assay [2] was determined as 81 µM.

In assay [1], `Cc1cc(Cl)c(CCC2C[C@@H](O)CC(=O)O2)c2cc(Cl)ccc12` (some centres undefined) registered a Relative potency of 15. Further, half-maximal inhibition in assay [2] (IC50) required 0.13 µM.

On to `Cc1cc(C)c2ccc(Cl)cc2c1CCC1C[C@@H](O)CC(=O)O1` (some centres undefined), for which, in assay [1], the Relative potency was 7. The molecule further came in with an IC50 in assay [2] of 0.2 µM.

In turn, `O=C1C[C@H](O)CC(CCc2ccc(Br)c3ccccc23)O1` (some centres undefined) displayed a Relative potency in assay [1] of 0.15. In addition, in assay [2], the IC50 was found to be 23.3 µM.

As to `Cc1cc(Cl)c2ccc(Cl)cc2c1CCC1C[C@@H](O)CC(=O)O1` (some centres undefined), the Relative potency in assay [1] was 30. In assay [2], this molecule displayed an IC50 of 0.06 µM.

In turn, `O=C1C[C@H](O)CC(CCc2ccc(Cl)c3cc(Cl)ccc23)O1` (some centres undefined) returned a Relative potency in assay [1] of 0.3. In assay [2], this molecule returned an IC50 of 7 µM.

For orientation: IC50 means the concentration needed to halve the response being measured. A higher IC50 goes with lower potency.
